Bounds are passed on as bounds.

By IC50 is commonly meant the concentration at which inhibition is half-maximal.

For the first test, the target named is T1, Serine/threonine-protein kinase ULK1 (Homo sapiens, UniProt O75385).
T1 sequence (O75385 whole entry): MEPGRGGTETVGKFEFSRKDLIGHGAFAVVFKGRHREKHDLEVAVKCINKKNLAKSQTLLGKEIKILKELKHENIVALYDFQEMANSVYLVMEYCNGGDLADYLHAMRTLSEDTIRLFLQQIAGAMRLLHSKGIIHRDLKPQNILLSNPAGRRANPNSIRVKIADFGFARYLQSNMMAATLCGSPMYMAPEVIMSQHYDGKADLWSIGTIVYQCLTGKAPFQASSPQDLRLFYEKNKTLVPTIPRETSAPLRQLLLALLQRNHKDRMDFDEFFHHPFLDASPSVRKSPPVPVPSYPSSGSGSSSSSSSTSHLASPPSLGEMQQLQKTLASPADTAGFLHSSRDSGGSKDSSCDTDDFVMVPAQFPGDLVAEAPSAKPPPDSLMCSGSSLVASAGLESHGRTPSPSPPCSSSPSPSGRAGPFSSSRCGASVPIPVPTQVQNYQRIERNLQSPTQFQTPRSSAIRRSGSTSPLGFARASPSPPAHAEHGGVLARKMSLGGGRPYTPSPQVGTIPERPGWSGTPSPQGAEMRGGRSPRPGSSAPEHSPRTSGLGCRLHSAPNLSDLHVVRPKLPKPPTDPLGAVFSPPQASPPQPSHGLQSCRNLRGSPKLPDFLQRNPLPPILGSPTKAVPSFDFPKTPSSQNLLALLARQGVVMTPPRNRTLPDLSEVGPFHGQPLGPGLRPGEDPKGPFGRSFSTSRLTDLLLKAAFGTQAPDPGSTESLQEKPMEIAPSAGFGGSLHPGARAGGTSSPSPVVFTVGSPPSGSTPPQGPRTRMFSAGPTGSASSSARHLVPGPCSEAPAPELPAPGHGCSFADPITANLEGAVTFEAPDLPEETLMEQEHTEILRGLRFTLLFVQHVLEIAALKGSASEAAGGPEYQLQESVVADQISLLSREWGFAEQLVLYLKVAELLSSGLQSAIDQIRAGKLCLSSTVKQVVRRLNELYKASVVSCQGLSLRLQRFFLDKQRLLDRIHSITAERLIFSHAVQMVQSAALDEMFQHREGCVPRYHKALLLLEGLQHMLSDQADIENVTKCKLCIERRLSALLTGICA
In words: Inhibition of recombinant human ULK1 (1-649) expressed in Sf9 cells using myelin basic protein as substrate by ADP-glo assay. On the technique in general: In ADP-Glo the light output rises with the ADP produced.
`FC1(F)Oc2ccc(Nc3ncc(C(F)(F)F)c(NC4CC4)n3)cc2O1`: the 50% inhibitory concentration (IC50) stood at 0.042 µM.

With `FC(F)(F)c1cnc(Nc2ccnnc2)nc1NC1CC1`, the IC50 stood at 0.04 µM.

On to `CCN1CCOc2cc(Nc3ncc(C(F)(F)F)c(NC4CC4)n3)cnc21`, for which the IC50 stood at 0.031 µM.

Take `FC(F)(F)c1cnc(Nc2cnc3[nH]ccc3c2)nc1NC1CC1`: the concentration for half-maximal inhibition (IC50) came to 0.029 µM.

As to `FC(F)(F)c1cnc(Nc2ccc3c(c2)OCO3)nc1NC1CC1`, the half-inhibitory concentration (IC50) worked out at 0.021 µM.

On to `FC(F)(F)c1cnc(Nc2cnc3[nH]ccc3c2)nc1NC1CCC1`, for which the IC50 is 0.017 µM.

As to `FC(F)(F)c1cnc(Nc2ccc3nn[nH]c3c2)nc1NC1CC1`, the half-maximal inhibitory concentration (IC50) came to 0.006 µM.

`O=C(C1CC1)N(C(=O)C1CC1)c1ccc(Nc2ncc(C(F)(F)F)c(NC3CC3)n2)cc1`: the half-inhibitory concentration (IC50) amounted to 0.03 µM.

As to `O=C1CCCc2cc(Nc3ncc(C(F)(F)F)c(NC4CC4)n3)ccc21`, the IC50 worked out at 0.003 µM.

As to `CNc1nc(Nc2cnc3[nH]ccc3c2)ncc1C(F)(F)F`, the IC50 was found to be 0.034 µM.

As to `FC(F)(F)c1cnc(Nc2ccc3[nH]ccc3c2)nc1NC1CC1`, the IC50 amounted to 0.023 µM.

Regarding `FC(F)(F)c1cnc(Nc2cnc3ccccc3c2)nc1NC1CC1`, the 50% inhibitory concentration (IC50) is 0.016 µM.

The target of another test is T1, Serine/threonine-protein kinase ULK1. In words: Inhibition of ULK1 (unknown origin) expressed in HEK293T cells incubated for 2 hrs by NanoBRET assay. It counts as cell-based. Background: In BRET a luciferase serves as donor, and the signal depends on an acceptor being close.
`FC1(F)Oc2ccc(Nc3ncc(C(F)(F)F)c(NC4CC4)n3)cc2O1` registered an IC50 of more than 10 µM.

Take `FC(F)(F)c1cnc(Nc2ccnnc2)nc1NC1CC1`: 1.61 µM corresponded to half-maximal inhibition (IC50).

`CCN1CCOc2cc(Nc3ncc(C(F)(F)F)c(NC4CC4)n3)cnc21` returned an IC50 of 1.21 µM.

Molecule `FC(F)(F)c1cnc(Nc2cnc3[nH]ccc3c2)nc1NC1CC1` came in with an IC50 of 1.93 µM.

Turning to `FC(F)(F)c1cnc(Nc2ccc3c(c2)OCO3)nc1NC1CC1`, the half-inhibitory concentration (IC50) is more than 10 µM.

Consider `FC(F)(F)c1cnc(Nc2cnc3[nH]ccc3c2)nc1NC1CCC1`, for which the IC50 is more than 10 µM.

Molecule `FC(F)(F)c1cnc(Nc2ccc3nn[nH]c3c2)nc1NC1CC1` had a concentration for half-maximal inhibition (IC50) of 1.17 µM.

In turn, `O=C(C1CC1)N(C(=O)C1CC1)c1ccc(Nc2ncc(C(F)(F)F)c(NC3CC3)n2)cc1` displayed an IC50 of 1.71 µM.

Molecule `O=C1CCCc2cc(Nc3ncc(C(F)(F)F)c(NC4CC4)n3)ccc21` returned an IC50 of 1.36 µM.

In turn, `CNc1nc(Nc2cnc3[nH]ccc3c2)ncc1C(F)(F)F` gave an IC50 of 3.63 µM.

`FC(F)(F)c1cnc(Nc2ccc3[nH]ccc3c2)nc1NC1CC1`: half-maximal inhibition (IC50) required 9.84 µM.

For the molecule `FC(F)(F)c1cnc(Nc2cnc3ccccc3c2)nc1NC1CC1`, the IC50 is more than 10 µM.

For the origin of these results see ChEMBL document CHEMBL4673296 (J Med Chem, 2020).
